Assay results reported in patent US7022719B2, “Preventing and reversing the formation of advance glycosylation endproducts” (Alteon, Inc., priority 1995, dated 2006).
Read-outs that look alike come from different tables or passages of the source.

What was measured:
[1] = tested on: cross-linking of glycated bovine serum albumin (AGE-BSA) to rat tail tendon collagen; test: Cross-linking Inhibition Assay; settings: for IC50: inhibition of AGE-BSA cross-linking to collagen-coated plate
Procedure: The following method was used to evaluate the ability of the compounds of the present invention to inhibit the cross-linking of glycated bovine serum albumin (AGE-BSA) to the rat tail tendon collagen-coated 96-well plate.
The blocking solution was removed from the wells by, washing the plate twice with PBS-'Tween 20 solution (0.05% Tween 20) using a NUNq-multiprobe or Dynatech ELISA-plate washer. Cross-linking of AGE-BSA (1 to 10 mg per well depending on the batch of AGE-BSA) to rat tail tendon collagen coated plate was performed with and without the testing ‘compound dissolved in PBS buffer at pH 7.4 at the desired concentrations by the, addition of 50 μl each of the AGE-BSA diluted in PBS or in the solution of test compound at 37° C. for 4 hours. Unbrowned BSA in PBS buffer with or without testing compound were added to the separate wells as the blanks. The un-cross-linked AGE-BSA was then removed by washing the wells three times with PBS-Tween buffer. The amount of AGE-BSA cross-linked to the tail tendon collagen-coated plate was then quantitated using a polyclonal antibody raised against AGE-RNase. After a one-hour incubation period, AGE antibody was removed by washing 4 times with PBS-Tween.
The bound AGE antibody was then detected with the addition of horseradish peroxidase-conjugated secondary antibody—goat anti-rabbit immunoglobulin and incubation for 30 minutes. […] The reaction was allowed for an additional 15 minutes and the absorbance was read at 410 nm in a Dynatech plate reader.

[2] = tested on: AGE-BSA crosslinked to collagen; test: Cross-link Breaking Assay (sandwich enzyme immunoassay); assay type: biochemical
Procedure: The present invention also involves a novel sandwich enzyme immunoassay used to ascertain the ability of test compounds to “break” or reverse already formed advanced glycosylation endproducts by detecting the breaking of AGE (Advanced glycosylation endproduct) moieties from AGE-crosslinked protein. This assay comprises: • a) incubation of AGE-modified bovine serum albumin (AGE BSA) on collagen-coated wells of microtiter plates for a period of 2–6 hours' at a temperature of 37° C.; • b) washing of the wells with PBS-Tween; • c) application of the test compounds to the washed wells of step b; • d) incubation of the test compounds applied to the washed wells for an additional 12–24 hours at a temperature of about 37° C.; and • e) detection of the AGE-breaking using an antibody raised against AGE-ribonuclease or cross-link breaking with an antibody against BSA.
In order to ascertain the ability of the compounds of the instant invention to “break” or reverse already formed advanced glycosylation endproducts, a novel sandwich enzyme immunoassay was developed which detects breaking of AGE (Advanced glycosylation endproduct) moieties from AGE-crosslinked protein. The assay utilizes collagen-coated 96 well microtiter plates that are obtained commercially. […] Following an incubation period of 16 hours (37° C.) cross-link-breaking is detected using an antibody raised against AGE-ribonuclease or with an antibody against BSA. […] Details of the assay are as follows:
Methods Preparation of Solutions and Buffers • 1. AGE-BSA stock solutions were prepared as follows. Sodium phosphate buffer (0.4 M) was prepared by dissolving 6 grams of monobasic sodium phosphate in 100 ml of distilled water, 7 grams of dibasic sodium phosphate (0.4 M) in 100 ml of distilled water and adjusting the pH of the dibasic solution to 7.4 with the monobasic solution. Sodium azide (0.02 grams) was added per 100 ml volume to inhibit bacterial growth. The BSA solution was prepared as follows: 400 mg of Type V BSA (bovine serum albumin) was added for each ml of sodium phosphate buffer (above). A 400 mM glucose solution was prepared by dissolving 7.2 grams of dextrose in 100 ml of sodium phosphate buffer (above). The BSA and glucose solutions were mixed 1:1 and incubated at 37° C. for 12 weeks. The pH of the incubation mixture was monitored weekly and adjusted to pH 7.4 if necessary. After 12 weeks, the AGE-BSA solution was dialyzed against PBS for 48 hours with four buffer changes, each at a 1:500 ratio of solution to dialysis buffer. Protein concentration was determined by the micro-Lowry method. The AGE-BSA stock solution was aliquoted and stored at −20° C. […] Working solutions for crosslinking and breaking studies were prepared as follows. Test compounds were dissolved in PBS and the pH was adjusted to pH 7.4 if necessary. AGE-BSA stock solution was diluted in PBS to measure maximum crosslinking and in the inhibitor solution for testing inhibitory activity of compounds. The concentration of AGE-BSA necessary to achieve the optimum sensitivity was determined by initial titration of each lot of AGE-BSA. • 3. Wash buffer (“PBS-Tween”) was, prepared as follows. PBS was prepared by dissolving the following salts in one liter of distilled water: NaCl, 8 grams; KC1, 0.2 gram, KH2PO4. […] Tween-20 was added to a final concentration of 0.05% (vol/vol). • 4. Substrates for detection of secondary antibody binding were prepared by diluting the HRP substrate buffer 1:10 in distilled water and mixing with ABTS chromogen 1:50 just prior to use. Assay Procedures • 1. Biocoat plates were blocked with 300 μl of “Superbloc”. Plates were blocked for one hour at room temperature and were washed with PBS-Tween three times with the Dynatech platewasher before addition of test reagents. • 2. Each experiment was set up in the following manner. The first three wells of the Biocoat plate were used for the reagent blank.

[3] = detection with anti-AGE antibody, read-out: IC50 (mM) Anti-AGE
[4] = detection with anti-BSA antibody, read-out: IC50 (mM) Anti-BSA

Cc1c[n+](CC(=O)c2ccccc2)cs1 [3-(2-phenyl-2-oxoethyl)-5-methyl-thiazolium bromide]
IC50 [1]: 12600 µM

CCCCCc1ccc(C(=O)C[n+]2csc(CCO)c2C)cc1.[Br-] [3-(2-(4′-n-pentylphenyl)-2-oxoethyl]-4-methyl-5-(2′-hydroxyethyl)-thiazolinium]
Relative Cross-link Inhibition ([1]; 3 mM): 52% @ 3 mM
IC50 [1]: 1530 µM

COc1ccc(C(=O)C[n+]2c(N)sc3cc(N)ccc32)cc1.[Br-] [2,6-diamino-3 (2-(4′-methoxyphenyl)-2-oxoethyl]benzothiazolium bromide]
Breaking Anti-AGE ([2]; anti-AGE antibody, at 10 mM): 29%
Breaking Anti-BSA ([2]; anti-BSA antibody, at 10 mM): 35%

C=Cc1sc[n+](CC(=O)c2cc(C(C)(C)C)c(O)c(C(C)(C)C)c2)c1C [3-(2-(3′,5′-tert-butyl-4′-hydroxyphenyl)-2-oxoethyl)-4-methyl-5-vinyl-thiazolium bromide]
Breaking Anti-AGE ([2]; anti-AGE antibody, at 0.3 mM): 32%
Breaking Anti-BSA ([2]; anti-BSA antibody, at 0.3 mM): 50%

Cc1cc(C)c(S(=O)(=O)[O-])c(C)c1.Nc1sc(-c2ccc3c(c2)OCCCO3)c[n+]1N [2,3-Diamino-5-(3′,4′-trimethylenedioxyphenyl) thiazolium mesitylene sulfonate]
Breaking Anti-AGE ([2]; anti-AGE antibody, at 1 mM): 13%
Breaking Anti-BSA ([2]; anti-BSA antibody, at 1 mM): 42%

CC(=O)C[n+]1ccsc1.[Cl-] [3-(2-methyl-2-oxoethyl) thiazolium chloride]
Breaking Anti-AGE ([2]; anti-AGE antibody, concentration not given): 56%
Breaking Anti-BSA ([2]; anti-BSA antibody, concentration not given): 93%
IC50 [2, 3]: 0.83 mM
IC50 [2, 4]: 0.75 mM

Cc1csc[n+]1CC(=O)c1cc(C(C)(C)C)c(O)c(C(C)(C)C)c1.[Br-] [3-[2-(3′,5′-di-tert-butyl-4′-hydroxyphenyl)-2-oxoethyl]-4-methyl-thiazolium bromide]
Breaking Anti-AGE ([2]; anti-AGE antibody, at 0.3 mM): 14%
Breaking Anti-BSA ([2]; anti-BSA antibody, at 0.3 mM): 2%

Cc1c(CCO)sc[n+]1Cc1c(Cl)cccc1Cl.[Cl-] [3-(2′,6′-dichlorobenzyl)-4-methyl-5-(2′-15 hydroxyethyl)-thiazolium chloride]
Breaking Anti-AGE ([2]; anti-AGE antibody, at 10 mM): 6%
Breaking Anti-BSA ([2]; anti-BSA antibody, at 10 mM): 27%

NC(=O)C[n+]1ccsc1 [3-(2-amino-2-oxoethyl)thiazolium bromide, 3-(2-amino-2-oxoethyl)-thiazolium bromide]
IC50 [1]: 530 µM

3-(2-(3′-methoxyphenyl]-2-oxoethyl)-thiazolium bromide
Breaking Anti-AGE [2]: 22%/44% (10)
Breaking Anti-BSA [2]: 22%/44% (10)

O=C(C[n+]1ccsc1)c1ccc(Br)cc1.[Br-] [3-(2-(4^1-bromophenyl]-2-oxoethyl)-thiazolium bromide]
Breaking Anti-AGE ([2]; anti-AGE antibody, at 30 mM): 76%
Breaking Anti-BSA ([2]; anti-BSA antibody, at 30 mM): 25%

Cc1c[n+](CC(N)=O)cs1 [3-(2-amino-2-oxoethyl)-5-methyl-thiazolium bromide]
IC50 [1]: 28.9 µM

Nc1ccc2c(c1)sc(N)[n+]2CC(=O)c1ccc(F)cc1.[Br-] [2,6-diamino-3 (2-(4′-fluorophenyl-2-oxoethyl]benzothiazolium bromide]
Breaking Anti-AGE ([2]; anti-AGE antibody, at 10 mM): 24%
Breaking Anti-BSA ([2]; anti-BSA antibody, at 10 mM): 40%

O=C(C[n+]1ccsc1)c1ccc2c(c1)OCCCO2.[Br-] [3-(2-(3′,4′-trimethylenedioxyphenyl)-2-oxoethyl]-thiazolium bromide]
Breaking Anti-AGE ([2]; anti-AGE antibody, at 10 mM): 17%
Breaking Anti-BSA ([2]; anti-BSA antibody, at 10 mM): 18%

Cc1c(CCO)sc[n+]1Cc1ccccc1.[Cl-] [3-benzyl-5-(2-hydroxyethyl)-4-methyl thiazolium chloride]
Breaking Anti-AGE ([2]; anti-AGE antibody, at 30 mM): 65%
Breaking Anti-BSA ([2]; anti-BSA antibody, at 30 mM): 61%
IC50 [2, 3]: 0.42 mM
IC50 [2, 4]: 0.55 mM

COC(=O)C[n+]1cscc1C.[Br-] [3-(2-methoxy-2-oxoethyl)-4-methylthiazolium bromide]
Breaking Anti-AGE ([2]; anti-AGE antibody, at 30 mM): 54%
Breaking Anti-BSA ([2]; anti-BSA antibody, at 30 mM): 51%

O=C(O)C[n+]1csc2ccccc21.[Br-] [3-(carboxymethyl)benzothiazolium bromide, 3-(carboxymethyl)-benzothiazolium bromide]
Breaking Anti-AGE ([2]; anti-AGE antibody, at 30 mM): 63.7%
Breaking Anti-BSA ([2]; anti-BSA antibody, at 30 mM): 17.9%

Nc1ccc2c(c1)sc(N)[n+]2CC(=O)c1ccc(Br)cc1.[Br-] [2,6-diamino-3 (2-(4′-bromophenyl)-2-oxoethyl] benzothiazolium bromide]
Breaking Anti-AGE ([2]; anti-AGE antibody, at 10 mM): 27%
Breaking Anti-BSA ([2]; anti-BSA antibody, at 10 mM): 44%
